The source of these data is article PMC6050274, “Buparlisib is a brain penetrable pan-PI3K inhibitor” (Scientific Reports, 2018).

The target in data set [1] is T1, murine BCRP (Abcg2/Bcrp1) (Mus musculus, UniProt Q7TMS5).
T1 construct: expressed in transfected cells; host or cells: MDCK (MDCK-Bcrp1)
T1 sequence (Q7TMS5 1-657): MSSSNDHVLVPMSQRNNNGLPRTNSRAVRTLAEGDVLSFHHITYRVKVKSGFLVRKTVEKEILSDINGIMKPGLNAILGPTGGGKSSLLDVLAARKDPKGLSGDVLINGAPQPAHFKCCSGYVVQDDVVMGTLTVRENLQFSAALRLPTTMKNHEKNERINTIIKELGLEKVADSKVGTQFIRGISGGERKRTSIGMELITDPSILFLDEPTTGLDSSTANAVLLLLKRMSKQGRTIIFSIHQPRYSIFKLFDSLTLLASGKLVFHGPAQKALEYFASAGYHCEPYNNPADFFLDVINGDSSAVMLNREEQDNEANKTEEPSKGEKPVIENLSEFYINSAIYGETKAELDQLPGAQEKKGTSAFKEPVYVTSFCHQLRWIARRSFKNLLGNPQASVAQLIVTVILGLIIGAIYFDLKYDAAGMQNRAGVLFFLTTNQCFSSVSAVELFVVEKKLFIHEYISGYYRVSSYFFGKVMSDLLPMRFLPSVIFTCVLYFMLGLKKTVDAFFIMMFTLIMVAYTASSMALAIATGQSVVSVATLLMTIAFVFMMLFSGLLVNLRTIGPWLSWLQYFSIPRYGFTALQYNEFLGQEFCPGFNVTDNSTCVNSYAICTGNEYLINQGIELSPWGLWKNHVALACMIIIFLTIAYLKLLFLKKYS
Kind of data set: Concentration equilibrium transport assay (CETA), MDCK-Bcrp1. It counts as in vitro ADME. The following applies: MDCK-Bcrp1, 100 nM. The source says: (§1) Figure 1 Analysis of buparlisib substrate affinity for ABC transporters using in vitro transport assays. (A) The chemical structure of buparlisib. (B) A conventional transport assay (CTA) using LLC-PK1 cells in presence of zosuquidar to block endogenous (porcine) P-gp activity. […] (C) Concentration equilibrium transport assays (CETAs) using MDCK or LLC cells that overexpress murine BCRP, (Bcrp1), human BCRP, murine P-gp (Mdr1a) or human P-gp (MDR1). […] The P-gp inhibitor zosuquidar was used in all MDCK cell lines to inhibit endogenous P-gp activity and in LLC cell lines to validate possible P-gp-mediated translocations. […]
(§2) Conventional bidirectional transport assays (CTAs) and concentration equilibrium transport assays (CETAs) were performed as described previously. […] Transwell leakiness was determined as Carboxyl-[^14C]-inulin translocation exceeding 1.5% per hour and these wells were excluded from the analysis. […]
(§3) As described in detail before, CETA results were analysed with the General linear model repeated measures procedure of SPSS (v22; SPSS Inc, Chicago, IL)[25]. […] The standard error of the oral bioavailability was calculated using the formula below: SEF=F(SEAUCp.o./AUCp.o.)^2+(SEAUCi.v./AUCi.v.)^2 Buparlisib concentrations in WT and transporter knockout mice in vivo were compared using one-way analysis of variance followed by post hoc Bonferroni tests. […]

Another data set deals with T2, human BCRP (ABCG2) (Homo sapiens, UniProt Q9UNQ0).
T2 construct: expressed in transfected cells; host or cells: MDCK (MDCK-BCRP)
T2 sequence (Q9UNQ0 1-655): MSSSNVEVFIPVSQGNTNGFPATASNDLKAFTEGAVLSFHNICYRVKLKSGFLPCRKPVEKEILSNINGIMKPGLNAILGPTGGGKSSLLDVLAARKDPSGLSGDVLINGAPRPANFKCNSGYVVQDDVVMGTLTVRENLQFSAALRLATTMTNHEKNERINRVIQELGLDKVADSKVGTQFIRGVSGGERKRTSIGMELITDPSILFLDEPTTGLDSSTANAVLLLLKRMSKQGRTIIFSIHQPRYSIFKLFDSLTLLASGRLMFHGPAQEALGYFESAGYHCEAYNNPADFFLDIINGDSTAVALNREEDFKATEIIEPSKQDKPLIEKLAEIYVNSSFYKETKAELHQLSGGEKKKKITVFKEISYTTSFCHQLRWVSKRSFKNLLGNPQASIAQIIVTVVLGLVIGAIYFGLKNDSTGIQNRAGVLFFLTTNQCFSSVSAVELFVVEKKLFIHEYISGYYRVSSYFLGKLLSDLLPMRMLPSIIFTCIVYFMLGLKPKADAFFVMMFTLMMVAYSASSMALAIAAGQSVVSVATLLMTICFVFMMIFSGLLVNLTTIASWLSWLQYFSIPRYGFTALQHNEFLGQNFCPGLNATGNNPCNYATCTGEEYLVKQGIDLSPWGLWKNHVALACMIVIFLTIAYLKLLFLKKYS
Kind of data set: Concentration equilibrium transport assay (CETA), MDCK-BCRP. It counts as in vitro ADME. The following applies: 100 nM.
Description: as §1, §2, §3

For data set [2] the following is noted: humans; cited from earlier work.

With `Nc1cc(C(F)(F)F)c(-c2cc(N3CCOCC3)nc(N3CCOCC3)n2)cn1` [buparlisib], the “substrate of murine BCRP” value in data set [1] is reported as “very weak substrate”. In addition, the “substrate of human BCRP” value on human BCRP (ABCG2) is “not a substrate”. The maximum tolerated dose in data set [2] is recorded as 100 mg per day.
